Changes are numbered by the printed parent chain. The source made the active and inactive calls. The rule behind the calls is not given here.
Assays:
[1] = Cytotoxicity against human fibroblasts at 200 uM by LDH assay; type: cell-based; conditions: fibroblast
Prunus dulcis = assay: Inhibition of almond beta-glucosidase using p-nitrophenyl-beta-D-glucopyranoside as substrate preincubated with substrate followed by protein addition measured after 30 mins by microplate reader analysis
[2] = target: T1, Beta-galactosidase (Bos taurus) (UniProt Q58D55); assay: Inhibition of bovine liver beta-galactosidase using p-nitrophenyl-beta-D-galactopyranoside as substrate preincubated with substrate followed by protein addition measured after 30 mins by microplate reader analysis
T1 sequence (whole entry): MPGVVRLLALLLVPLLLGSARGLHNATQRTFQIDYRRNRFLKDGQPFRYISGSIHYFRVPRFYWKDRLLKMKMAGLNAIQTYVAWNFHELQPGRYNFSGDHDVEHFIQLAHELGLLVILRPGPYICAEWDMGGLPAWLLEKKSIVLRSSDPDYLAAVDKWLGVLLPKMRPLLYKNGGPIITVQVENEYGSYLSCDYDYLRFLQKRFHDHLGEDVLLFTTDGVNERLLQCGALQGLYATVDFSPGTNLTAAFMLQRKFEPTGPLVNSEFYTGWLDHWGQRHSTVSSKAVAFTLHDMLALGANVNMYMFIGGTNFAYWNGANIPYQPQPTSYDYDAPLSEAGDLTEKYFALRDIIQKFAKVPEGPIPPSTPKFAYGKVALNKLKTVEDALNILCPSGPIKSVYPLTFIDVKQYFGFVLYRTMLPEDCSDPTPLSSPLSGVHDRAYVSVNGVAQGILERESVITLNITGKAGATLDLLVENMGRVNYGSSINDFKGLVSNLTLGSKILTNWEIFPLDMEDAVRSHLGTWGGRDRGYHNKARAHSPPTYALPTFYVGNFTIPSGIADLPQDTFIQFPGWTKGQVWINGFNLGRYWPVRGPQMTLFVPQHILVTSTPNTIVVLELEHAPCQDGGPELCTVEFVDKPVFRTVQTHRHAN

Beta-galactosidase = target: T2, Beta-galactosidase (Homo sapiens, UniProt P16278); assay: Inhibition of human beta-galactosidase expressed in mouse fibroblasts using 4-methylumbelliferone -conugated beta-D-galactoside as substrate incubated for 30 mins at pH 4.5 followed by substrate addition by fluorescence analysis
T2 sequence (P16278 whole entry): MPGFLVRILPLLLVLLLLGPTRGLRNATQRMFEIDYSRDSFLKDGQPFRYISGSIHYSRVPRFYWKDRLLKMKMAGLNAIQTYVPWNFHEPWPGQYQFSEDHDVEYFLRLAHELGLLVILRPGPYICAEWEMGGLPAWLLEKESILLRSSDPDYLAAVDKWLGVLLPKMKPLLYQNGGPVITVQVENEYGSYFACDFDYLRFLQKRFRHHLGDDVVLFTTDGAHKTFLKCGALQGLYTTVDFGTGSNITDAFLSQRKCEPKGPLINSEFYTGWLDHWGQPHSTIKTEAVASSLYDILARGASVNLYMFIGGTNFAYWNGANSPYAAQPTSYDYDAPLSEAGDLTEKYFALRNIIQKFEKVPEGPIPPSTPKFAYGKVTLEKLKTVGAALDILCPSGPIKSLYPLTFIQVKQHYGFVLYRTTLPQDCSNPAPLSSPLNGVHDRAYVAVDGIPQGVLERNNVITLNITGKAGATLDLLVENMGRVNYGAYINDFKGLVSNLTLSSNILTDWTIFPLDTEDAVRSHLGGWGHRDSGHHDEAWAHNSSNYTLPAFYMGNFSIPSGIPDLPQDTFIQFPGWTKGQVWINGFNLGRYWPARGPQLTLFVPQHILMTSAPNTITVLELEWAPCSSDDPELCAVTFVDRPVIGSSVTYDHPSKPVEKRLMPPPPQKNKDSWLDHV

[3] = Inhibition of human alpha-galactosidase isolated from human fibroblasts incubated for 30 mins using […] analysis
[4] = target: T3, Lysosomal acid glucosylceramidase (Homo sapiens, UniProt P04062); assay: Inhibition of human beta-glucosidase isolated from human fibroblasts incubated for 30 mins using […] analysis
T3 sequence (P04062 whole entry): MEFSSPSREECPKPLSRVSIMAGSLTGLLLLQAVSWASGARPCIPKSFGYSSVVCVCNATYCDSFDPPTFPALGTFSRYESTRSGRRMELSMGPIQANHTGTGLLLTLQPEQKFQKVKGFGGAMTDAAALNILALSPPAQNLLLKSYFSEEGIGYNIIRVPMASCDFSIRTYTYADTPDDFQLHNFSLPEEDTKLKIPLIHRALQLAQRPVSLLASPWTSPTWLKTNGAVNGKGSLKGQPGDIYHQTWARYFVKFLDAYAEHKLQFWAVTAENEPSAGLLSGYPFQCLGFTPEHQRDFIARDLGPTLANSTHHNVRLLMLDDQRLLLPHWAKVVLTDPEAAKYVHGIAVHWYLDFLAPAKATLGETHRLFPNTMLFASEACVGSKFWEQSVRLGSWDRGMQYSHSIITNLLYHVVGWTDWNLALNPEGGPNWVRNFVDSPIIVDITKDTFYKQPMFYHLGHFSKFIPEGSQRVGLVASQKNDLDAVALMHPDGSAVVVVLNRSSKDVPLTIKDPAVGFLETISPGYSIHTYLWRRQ

[5] = tested on: T4, Beta-galactosidase (Homo sapiens), P16278 [R201C]; assay: Activation of human beta-galactosidase R201C mutant expressed in mouse fibroblasts using 4-methylumbelliferone -conugated beta-D-galactoside as substrate at 20 uM preincubated for 48 hrs followed by substrate addition measured after 30 mins by fluorescence analysis relative to control
T4 sequence (whole entry): T2 sequence (P16278 whole entry) with R201C

[6] = tested on: T4, Beta-galactosidase (Homo sapiens), P16278 [R201C]; assay: Activation of human beta-galactosidase R201C mutant expressed in mouse fibroblasts using 4-methylumbelliferone -conugated beta-D-galactoside as substrate at 2 uM preincubated for 48 hrs followed by substrate addition measured after 30 mins by fluorescence analysis relative to control
[7] = Cytotoxicity against human fibroblasts at 20 uM by LDH assay; type: cell-based; conditions: fibroblast
[8] = tested on: T4, Beta-galactosidase (Homo sapiens), P16278 [R201C]; assay: Activation of human beta-galactosidase R201C mutant expressed in mouse fibroblasts using 4-methylumbelliferone -conugated beta-D-galactoside as substrate at 0.2 uM preincubated for 48 hrs followed by substrate addition measured after 30 mins by fluorescence analysis relative to control

SMILES	Activity [1]	inhibition (Prunus dulcis)	inhibition [2]	IC50 (Beta-galactosidase)	IC50 [3]	IC50 [4]	fold change (FC) [5]	fold change (FC) [6]	Activity [7]	Activity [8]	Activity [6]
CCC(CC)N[C@@H]1C=C[C@H](O)[C@H](O)[C@H]1O.Cl	< 10%	Active	Active	> 1000 µM	> 1000 µM	> 1000 µM	1.2				
CCC(CC)CN[C@@H]1C=C[C@H](O)[C@H](O)[C@H]1O.Cl	< 10%	Active	Active	15 µM	> 1000 µM	> 1000 µM	7.4				
CCCCCCN[C@@H]1C=C[C@H](O)[C@H](O)[C@H]1O.Cl	< 10%	Active	Active	56 µM	> 1000 µM	> 1000 µM	4.6				
CCCCN[C@@H]1C=C[C@H](O)[C@H](O)[C@H]1O.Cl	< 10%	Active	Active	50 µM	> 1000 µM	> 1000 µM	2				
CCCCCCCCN[C@@H]1C=C(CO)[C@H](O)[C@H](O)[C@H]1O.Cl	7.5%			1.7 µM	> 1000 µM	> 1000 µM	3.6	4.6	1.1%		
Cl.O[C@@H]1[C@@H](O)[C@H](NCCc2ccccc2)C=C[C@@H]1O	< 10%	Active	Active	86 µM	> 1000 µM	> 1000 µM	4.2				
CCCCCCCCCCN[C@@H]1C=C[C@H](O)[C@H](O)[C@H]1O.Cl	54%	Active	Active	43 µM	> 1000 µM	> 1000 µM	1.6		24%		
Cl.OCCCN[C@@H]1C=C[C@H](O)[C@H](O)[C@H]1O	< 10%	Active	Active	> 1000 µM	> 1000 µM	> 1000 µM	0.9				
CCCCCCCCN[C@@H]1C=C[C@H](O)[C@H](O)[C@H]1O.Cl	25%	Active	Active	120 µM	> 1000 µM	> 1000 µM	5.4			Active	Active
CCCCCCCCN[C@@H]1C=C(C)[C@H](O)[C@H](O)[C@H]1O				46 µM	> 1000 µM	> 1000 µM	5.2			Active	Active
Cl.O[C@@H]1[C@@H](O)[C@H](NCC2CCCCC2)C=C[C@@H]1O	3.8%	Active	Active	60 µM	> 1000 µM	> 1000 µM	8.5		0.7%		
Cl.O[C@@H]1[C@@H](O)[C@H](NCc2ccccc2)C=C[C@@H]1O	< 10%	Active	Active	180 µM	> 1000 µM	> 1000 µM	1.5				
Cl.O[C@@H]1[C@@H](O)[C@H](NC2CCCCC2)C=C[C@@H]1O	< 10%	Active	Active	490 µM	> 1000 µM	> 1000 µM	1.4				
CC(C)CN[C@@H]1C=C[C@H](O)[C@H](O)[C@H]1O.Cl	< 10%	Active	Active	41 µM	> 1000 µM	> 1000 µM	4.6				
CC(C)CCN[C@@H]1C=C[C@H](O)[C@H](O)[C@H]1O.Cl	< 10%	Active	Active	28 µM	> 1000 µM	> 1000 µM	4.6				
CCCCCN[C@@H]1C=C[C@H](O)[C@H](O)[C@H]1O.Cl	< 10%	Active	Active	19 µM	> 1000 µM	> 1000 µM	4				
